Source: US20260232633A1, “Compositions and Uses Thereof” (Purposeful IKE, priority 2020, published 2026)
Values joined by “and” are separate entries in the source; they are usually repeats but may differ in a detail not shown here. Identical values can stand only once.

Tests used:
Fmr1 KO mice [1] = experiment: Sociability: three chamber partition test; format: in vivo; set-up: unit not given here; details: for Sociability: Mean Diff., F_KO-V vs. F_ treated KO (Dunnett) / Sociability: Mean Diff., F_KO-V vs. N_ treated KO (Dunnett): against F_KO-V; for Sociability: Mean Diff., F_KO-V vs. F_ treated KO (Dunnett): Sumatriptan 20, Oxitriptan 40, Ergoloid 4, Ergoloid 2 + Oxitriptan 40 mg/kg; for Sociability, F_KO / Sociability, N_KO: individual animal values
Method: (§1) Fmr1 KO mice backcrossed to the FVB strain and WT littermates were used during experiments. TransnetXY Automated Genotyping (www.transnetyx.com/). TRANSNETYX, INC., 8110 Cordova Rd. Suite 119, Cordova, TN 38016, USA was used for genotyping. The animals were pretreated for 14 days. The active ingredients of Sumatriptan and Ergoloid were in a water carrier, whereas oxitriptan was in a methanol carrier.
(§2) The mice were housed in plastic cages (35×30×12 cm), 5 in each. The room temperature (21±2° C.),relative humidity (55±5%), a 12-h light-dark cycle (lights on 7 a.m.-7 p.m.) and air exchange (16 times per h) were automatically controlled. The animals had free access to commercial food pellets and water. Testing was conducted during the light phase. Ten mice per treatment group were used for the AGS experiments. Experiments were conducted in line with the requirements of the UK Animals (Scientific Procedures) Act, 1986.
(§3) All experiments were conducted with the experimenter blind to genotype and drug treatment. Separate investigators prepared and coded dosing solutions, allocated the mice to the study treatment groups, dosed the animals, and collected the Audiogenic Seizure data.
(§4) Behavior testing was conducted at 2 weeks. The behavioral tests were as follows: 1. Hyperactivity: Open field; 2. Stereotypy: Self-grooming; 3. Sociability: Three chamber partition test; 4. Memory and Learning: Novel Object Recognition; 5. Anxiety: hyponeophagia; and 6. Test of daily living: marble burying
For sociability a three chamber partition test was utilized. The three-chamber paradigm test known as Crawley's sociability and preference for social novelty protocol has previously been successfully employed to study social affiliation and social memory in several inbred and mutant mouse lines. The main principle of the test was based on the free choice by a subject mouse to spend time in any of three box's compartments during two experimental sessions, including indirect contact with one or two mice with which it was unfamiliar (Kaidanovich-Beilin 2011).
(§5) The treatment of the mice with OX (Oxitriptan), SU (Sumatriptan), ER (Ergoloid mesylates, also referred to as ergoloid herein) were according to the matrix shown below in Table 1. […]

Fmr1 KO mice [2] = experiment: Test of daily living (marble burying / nesting); format: in vivo; set-up: scale not given here; details: for Tests of daily living: individual animal values
Method: as §1, §2, §3, §4
For test of daily living, nesting was assessed as nest building is an innate behavior in rodents, even when raised in laboratory settings. Synthetic and/or natural materials (such as twine, tissue, cotton, paper, and hay) are provided as a gauge of their overall well-being and as an ancillary assessment to predict the possible decline in cognition. Typically, changes in nesting behaviors, such as failure to create a nest, indicate a change in health or welfare. In addition, nesting behavior is sensitive to many environmental and physiological challenges, as well as many genetic mutations underlying pathological disease states (Gaskill 2013).
(§6) The treatment of the mice with OX (Oxitriptan), SU (Sumatriptan), ER (Ergoloid mesylates, also referred to as ergoloid herein) were according to the matrix shown below in Table 1.
(§7) The experimental procedures described above for Example 1 were used in the following tests, as well as the addition of two further behaviour tests as described below. An SSRI (selective serotonin re-uptake inhibitor) was co-dosed with the ergoloid mesylates and oxitriptan to assess the effect of the ergoloid mesylates and oxitriptan treatment on a subject already receiving SSRI treatment.

Fmr1 KO mice [3] = experiment: Anxiety: hyponeophagia test; format: in vivo
Method: as §1, §2, §3
Behavior testing was conducted at 2 weeks. […]
For anxiety a hyponeophagia test was conducted. […] The amounts ingested then gradually increase until the animal has determined whether the substance is safe and nutritious. […]

Fmr1 KO mice [4] = experiment: Open field test (hyperactivity); format: in vivo
Method: as §1, §2
All experiments were conducted with the experimenter blind to genotype and drug treatment. Separate investigators prepared and coded dosing solutions, allocated the mice to the study treatment groups, dosed the animals, and collected the Audiogenic Seizure data. […]
For hyperactivity, the open field test (OFT) is a common measure of exploratory behavior and general activity in both mice and rats, where both the quality and quantity of the activity can be measured. […]

Fmr1 KO mice [5] = experiment: Memory and learning: Novel Object Recognition (NOR); format: in vivo; set-up: unit not given here; details: for NOR: Mean Diff., F_KO-V vs. F_ treated KO (Dunnett) / NOR: Mean 2 (mean of F_ treated KO group): F_ values; for NOR: Mean Diff., F_KO-V vs. F_ treated KO (Dunnett) / NOR: Mean Diff., F_KO-V vs. N_ treated KO (Dunnett): against F_KO-V; for NOR: Mean Diff., F_KO-V vs. F_ treated KO (Dunnett): Sumatriptan 20, Oxitriptan 40, Ergoloid 4, Ergoloid 2 + Oxitriptan 40 mg/kg; for Novel Object Recognition, F_KO / Novel Object Recognition, N_KO: individual animal values
Method: as §1, §2, §3, §4
For memory and learning, a novel object recognition (NOR) task was used to evaluate the rodents' ability to recognize a novel object in the environment. […] The task procedure consists of three phases: habituation, familiarization, and test phase (Antunes 2012).
as §5

Fmr1 KO mice [6] = experiment: Stereotypy: self-grooming; format: in vivo; details: for Stereotypy: Mean 2 (mean of treated KO group): Table 8, KO-V mean 45.40, WT-V 31.60, doses as E19
Method: as §1, §2, §3, §4
For stereotypy, self-grooming was assessed. Self-grooming in animals is an innate behaviour that is involved in hygiene maintenance and other physiologically important processes, including thermoregulation, social communication and de-arousal. It is one of the most frequently observed behaviours in awake rodents and has a patterned, sequential organization with characteristic cephalocaudal progression (Kalueff 2016).
as §5

FMR1 mice = experiment: Behavioral experiments overall (FXS phenotypes); format: in vivo
Method: as §1, §4, §6
as §7, with “treatment. […]” for “treatment.”

[7] = Jacobsen J P R 2016; cited from earlier work
[8] = N_ values, against N_WT-V, Sumatriptan 20, Oxitriptan 40, Ergoloid 4, Ergoloid 2 + Sumatriptan 10, Ergoloid 2 + Oxitriptan 40 mg/kg
[9] = Table 12, N_ values, F_KO-V mean 81.60, doses as E34
[10] = Table 4, WT-V mean 4.800, KO-V 1.200, doses as E7
[11] = Table 10, KO-V mean 1.200, doses as E25
[12] = against KO-V, Sumatriptan 20, Oxitriptan 40, Ergoloid 4, Ergoloid 2 + Oxitriptan 40 mg/kg
[13] = against WT-V, Sumatriptan 20, Oxitriptan 40, Ergoloid 4, Ergoloid 2 + Sumatriptan 10, Ergoloid 2 + Oxitriptan 40 mg/kg
[14] = Table 11, F_KO-V mean 6.600, doses as E28

Question: What does the source list for CNS(=O)(=O)Cc1ccc2[nH]cc(CCN(C)C)c2c1 [Sumatriptan]?
Answer: Sociability: Mean Diff., F_KO-V vs. F_ treated KO (Dunnett) (Fmr1 KO mice [1]; F_ values): 19.40; Sociability, F_KO (Fmr1 KO mice [1]; F_KO-Sumatriptan (20 mg/kg)): 61 (2×) and 64 and 65 (2×) and 60 (3×) and 63 (2×); Sociability: Mean Diff., F_KO-V vs. N_ treated KO (Dunnett) (Fmr1 KO mice [1]; N_ values, doses as E34): −16.60; Sociability: Mean Diff., N_WT-V vs. N_ treated KO (Dunnett) (Fmr1 KO mice [1]; [8]): 0.9000; Sociability, N_KO (Fmr1 KO mice [1]; N_KO-Sumatriptan (20 mg/kg)): 99 and 97 (2×) and 103 and 98 and 90 and 102 and 100 and 95 and 101; Sociability: Mean 2 (mean of N_ treated KO group) (Fmr1 KO mice [1]; Table 6, N_WT-V mean 99.10, N_KO-V 83.90, doses as E13): 98.20; Sociability: Mean 2 (mean of F_ treated KO group) (Fmr1 KO mice [1]; Table 12, F_ values, F_KO-V mean 81.60, doses as E34): 62.20; Sociability: Mean 2 (mean of N_ treated KO group) (Fmr1 KO mice [1]; [9]): 98.20; Tests of daily living (Fmr1 KO mice [2]; KO-Sumatriptan (20 mg/kg)): 5 (7×) and 4 (3×); Test of daily living: Mean 2 (mean of treated KO group) (Fmr1 KO mice [2]; [10]): 4.700; Test of daily living: Mean 2 (mean of treated KO group) (Fmr1 KO mice [2]; [11]): 4.700; Test of daily living: Mean Diff., KO-V vs. treated KO (Dunnett) (Fmr1 KO mice [2]; [12]): −3.500; Test of daily living: Mean Diff., WT-V vs. treated KO (Dunnett) (Fmr1 KO mice [2]; [13]): 0.1000; Hyponeophagia: Mean Diff., WT-V vs. treated KO (Dunnett) (Fmr1 KO mice [3]; [13]): −9.200; Open Field: Mean Diff., KO-V vs. treated KO (Dunnett) (Fmr1 KO mice [4]; against KO-V, Sumatriptan 20, Oxitriptan 80, Ergoloid 4, Ergoloid 2 + Oxitriptan 40 mg/kg): 846.6; NOR: Mean Diff., F_KO-V vs. F_ treated KO (Dunnett) (Fmr1 KO mice [5]): −0.2000; Novel Object Recognition, F_KO (Fmr1 KO mice [5]; F_KO-Sumatriptan (20 mg/kg)): 9 (2×) and 5 (2×) and 8 (2×) and 7 (2×) and 4 and 6; NOR: Mean Diff., F_KO-V vs. N_ treated KO (Dunnett) (Fmr1 KO mice [5]; N_ values, doses as E28): −0.7000; NOR: Mean Diff., N_WT-V vs. N_ treated KO (Dunnett) (Fmr1 KO mice [5]; [8]): 6.600; Novel Object Recognition, N_KO (Fmr1 KO mice [5]; N_KO-Sumatriptan (20 mg/kg)): 6 (3×) and 8 (2×) and 9 (3×) and 5 and 7; NOR: Mean 2 (mean of N_ treated KO group) (Fmr1 KO mice [5]; Table 5, N_WT-V mean 13.90, N_KO-V 6.700, doses as E10): 7.300; NOR: Mean 2 (mean of F_ treated KO group) (Fmr1 KO mice [5]; [14]): 6.800; NOR: Mean 2 (mean of N_ treated KO group) (Fmr1 KO mice [5]; Table 11, N_ values, F_KO-V mean 6.600, doses as E28): 7.300; Stereotypy: Mean 2 (mean of treated KO group) (Fmr1 KO mice [6]): 30.90; Stereotypy: Mean Diff., KO-V vs. treated KO (Dunnett) (Fmr1 KO mice [6]; [12]): 14.50

Question: Which results are given for N[C@@H](Cc1c[nH]c2ccc(O)cc12)C(=O)O [Oxitriptan, 2-amino-3-(5-hydroxy-1H-indol-3-yl)propanoic acid]?
Answer: Sociability: Mean Diff., F_KO-V vs. F_ treated KO (Dunnett) (Fmr1 KO mice [1]; F_ values): 29.51; Sociability, F_KO (Fmr1 KO mice [1]; F_KO-Oxitriptan (40 mg/kg)): 51 (2×) and 54 and 52 (2×) and 50 (2×) and 53 (2×) and 55; Sociability: Mean Diff., F_KO-V vs. N_ treated KO (Dunnett) (Fmr1 KO mice [1]; N_ values, doses as E34): −17.20; Sociability, N_KO (Fmr1 KO mice [1]; N_KO-Oxitriptan (40 mg/kg)): 98 (2×) and 97 (2×) and 100 (2×) and 99 (2×) and 96; Sociability: Mean 2 (mean of N_ treated KO group) (Fmr1 KO mice [1]; [9]): 98.80; Tests of daily living (Fmr1 KO mice [2]; KO-Oxitriptan (40 mg/kg)): 5 (9×) and 4; Test of daily living: Mean 2 (mean of treated KO group) (Fmr1 KO mice [2]; [10]): 4.900; Test of daily living: Mean 2 (mean of treated KO group) (Fmr1 KO mice [2]; [11]): 4.900; Effect on FXS phenotypes in the behavioral experiments (Example 1) (FMR1 mice): ameliorates the FXS phenotypes; Hyponeophagia (Fmr1 KO mice [3]; KO-Oxitriptan (40 mg/kg), individual animal values): 150 and 140 (2×); half life [7]: 2 h; Open Field: Mean Diff., WT-V vs. treated KO (Dunnett) (Fmr1 KO mice [4]; against WT-V, 14 days QD, Sumatriptan 20, 5-HTP 80, EM 4, Ergoloid 2 + Sumatriptan 10, Ergoloid 2 + Oxitriptan 40 mg/kg): −512.4; NOR: Mean Diff., F_KO-V vs. F_ treated KO (Dunnett) (Fmr1 KO mice [5]): −0.03636; Novel Object Recognition, F_KO (Fmr1 KO mice [5]; F_KO-Oxitriptan (40 mg/kg)): 6 (4×) and 5 (3×) and 9 (2×) and 8 (2×); NOR: Mean Diff., F_KO-V vs. N_ treated KO (Dunnett) (Fmr1 KO mice [5]; N_ values, doses as E28): −4.218; Novel Object Recognition, N_KO (Fmr1 KO mice [5]; N_KO-Oxitriptan (40 mg/kg)): 10 (4×) and 12 and 14 and 8 (2×) and 15 and 13 and 9; NOR: Mean 2 (mean of F_ treated KO group) (Fmr1 KO mice [5]; [14]): 6.636; Stereotypy: Mean 2 (mean of treated KO group) (Fmr1 KO mice [6]): 38.30
